Test results as given in ChEMBL document CHEMBL1158997, “New Stemodane Diterpenes from Stemodia maritima” (1992).

System: Human alphaherpesvirus 1
Assay: Antiviral activity against HSV1 assessed as plaque reduction at 30 to 200 […]
Assay type: functional
Set-up: scale not given: the % may be the effect or the level left

`CC1(C)C[C@H](O)C[C@@]2(C)[C@H]1CC[C@H]1C[C@H]3C[C@]12CC[C@]3(C)O[C@@H]1O[C@H](CO)[C@@H](O)[C@H](O)[C@H]1O` [STEMODINOSIDE B] gave an Activity of 77%.
